Results: patent US20240254218A1 (ICAHN SCHOOL OF MEDICINE AT MOUNT SINAI, priority 2021, published 2024)

Legend:
[1] = target: T1, FSH receptor (FSHR) (Homo sapiens, UniProt P23945); conditions: cited from earlier work
T1 sequence (P23945 18-695): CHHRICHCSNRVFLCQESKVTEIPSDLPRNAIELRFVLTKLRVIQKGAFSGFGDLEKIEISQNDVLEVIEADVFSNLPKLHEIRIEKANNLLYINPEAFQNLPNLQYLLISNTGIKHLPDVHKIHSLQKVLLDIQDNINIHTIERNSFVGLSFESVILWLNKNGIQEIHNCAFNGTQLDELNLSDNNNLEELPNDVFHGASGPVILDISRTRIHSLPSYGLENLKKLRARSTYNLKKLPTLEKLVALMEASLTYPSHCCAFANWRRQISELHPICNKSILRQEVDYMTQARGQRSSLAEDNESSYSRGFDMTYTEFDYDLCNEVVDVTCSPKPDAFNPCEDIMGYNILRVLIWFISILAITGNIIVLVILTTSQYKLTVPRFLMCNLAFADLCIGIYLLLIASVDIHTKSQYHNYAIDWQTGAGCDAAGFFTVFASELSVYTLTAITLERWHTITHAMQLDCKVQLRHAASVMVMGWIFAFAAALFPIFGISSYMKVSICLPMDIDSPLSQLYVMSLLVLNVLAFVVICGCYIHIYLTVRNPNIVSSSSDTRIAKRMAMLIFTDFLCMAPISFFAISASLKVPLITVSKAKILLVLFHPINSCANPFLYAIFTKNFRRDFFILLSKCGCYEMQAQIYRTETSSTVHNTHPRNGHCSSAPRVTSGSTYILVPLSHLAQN

[2] = system: FSHR signaling; experiment: Pathway inhibitors on FSH-induced signalling in SH-SY5Y cells; type: cell-based, human; conditions: FSH 30 ng/ml 30 minutes; for FSH-induced SRPK2 phosphorylation/activation / FSH-induced AEP activation (cleavage and phosphorylation) / FSH-induced C/EBPβ activation/expression: AKTi-1/2 10 μM; for FSH-induced SRPK2 phosphorylation/activation / FSH-induced AEP activation (cleavage and phosphorylation) / FSH-induced C/EBPβ activation/expression / FSH-induced AKT phosphorylation: PD98059 10 μM; for FSH-induced AEP activation (cleavage and phosphorylation) / FSH-induced C/EBPβ activation/expression / FSH-induced AKT phosphorylation: PTX 50 ng/ml
Text: Of note, MAPK-induced phosphorylation of residue T188 of C/EBPβ regulates its transcriptional activity (Ramji, D. P. & Foka, P. Biochem J 365, 561-575, (2002)). Likewise, AKT phosphorylates SRPK2, which, in turn, activates AEP by phosphorylating residue S266. […] Pertussis toxin inhibited FSH-induced C/EBPβ and AEP activation and AKT phosphorylation (FIG. 2E). […] In contrast, while the MEK1 inhibitor PD98059 blocked FSH-induced C/EBPβ, AEP and SRPK2 activation, AKT was unaffected (FIG. 2E).

Molecule | mode of action on the FSH receptor (FSHR) [1] | FSH-induced SRPK2 phosphorylation/activation [2] | FSH-induced AEP activation (cleavage and phosphorylation) [2] | FSH-induced C/EBPβ activation/expression [2] | FSH-induced AKT phosphorylation [2] | effect on any signaling molecule ([2]; SQ22536 100 μM)
COc1ccc(N=Nc2c(S(=O)(=O)[O-])cc3cc(Nc4nc(Cl)nc(N(CCC(N)=O)CCC(N)=O)n4)ccc3c2O)cc1.[Na+] [7-[4-[Bis-(2-carbamoyl-ethyl)-amino]-6-chloro-(1,3,5)-triazin-2-ylamino)-4-hydroxy-3-(4-methoxy-phenylazo)-naphthalene]-2-sulfonic acid, sodium salt] | selective, noncompetitive inhibitor | – | – | – | – | –
O=c1[nH]c2ccccc2n1C1CCN(Cc2ccc(-c3nc4cc5nc[nH]c5cc4nc3-c3ccccc3)cc2)CC1 [AKTi-1/2] | – | attenuated | attenuated | attenuated | – | –
COc1cccc(-c2cc(=O)c3ccccc3o2)c1N [PD98059] | – | blocked | blocked | blocked | unaffected | –
Nc1ncnc2c1ncn2C1CCCO1 (stereo not drawn) [SQ22536] | – | – | – | – | – | Absence of an effect
pertussis toxin | – | – | inhibited | inhibited | inhibited | –
